Measured values published in US10144938B2, “Methods of processing aromatic compounds” (WISCONSIN ALUMNI RESEARCH FOUNDATION, priority 2015, dated 2018).

Legend:
[1] = tested on: bacterial or yeast ethanologens; settings: literature reports; cited from earlier work
R. sphaeroides 2.4.1 = experiment: Glucose and xylose consumption in synthetic hydrolysate with individual aromatics added; assay type: cell-based, Rhodobacter sphaeroides; settings: individual aromatics at concentrations present in SynH2, diluted to 20% strength, FIG. 9
Text: For comparison, glucose and xylose utilization in 20% SynH2^− (no aromatics), as well as in 20% ACSH and 20% AHPCSH are also included.

Row | SMILES | Inhibitory to bacterial or yeast ethanologens [1] | Effect on glucose utilization (R. sphaeroides 2.4.1)
1 | CC(=O)c1ccc(O)cc1 [4-Hydroxyacetophenone] | inhibitory | inhibited glucose utilization
2 | O=Cc1ccc(O)cc1 [4-Hydroxybenzaldehyde] | inhibitory | inhibited glucose utilization
3 | COc1cc(C(C)=O)ccc1O [Acetovanillone] | inhibitory | –
4 | O=C(O)c1ccccc1 [Benzoate] | inhibitory | –
5 | COc1cc(C=O)ccc1O [Vanillin] | inhibitory | –
6 | O=C(O)/C=C/c1ccc(O)cc1 [p-Coumaric acid] | inhibitory | inhibited glucose utilization
